Results from ChEMBL document CHEMBL4130548, “Exploration of 1,2,3-triazole-pyrimidine hybrids as potent reversal agents against ABCB1-mediated multidrug resistance” (Eur J Med Chem, 2018).

How the values were obtained:
Format in all cases: cell-based
[1] = biological target: T1, ATP-dependent translocase ABCB1 (Homo sapiens, UniProt P08183); test: Inhibition of ABCB1 in human SW620/AD300 cells assessed as potentiation of paclitaxel-induced cytotoxicity by measuring fold reduction in paclitaxel IC50 at 2 uM preincubated for 4 hrs followed by paclitaxel addition measured after 72 hrs by MTT assay
T1 sequence (P08183 whole entry): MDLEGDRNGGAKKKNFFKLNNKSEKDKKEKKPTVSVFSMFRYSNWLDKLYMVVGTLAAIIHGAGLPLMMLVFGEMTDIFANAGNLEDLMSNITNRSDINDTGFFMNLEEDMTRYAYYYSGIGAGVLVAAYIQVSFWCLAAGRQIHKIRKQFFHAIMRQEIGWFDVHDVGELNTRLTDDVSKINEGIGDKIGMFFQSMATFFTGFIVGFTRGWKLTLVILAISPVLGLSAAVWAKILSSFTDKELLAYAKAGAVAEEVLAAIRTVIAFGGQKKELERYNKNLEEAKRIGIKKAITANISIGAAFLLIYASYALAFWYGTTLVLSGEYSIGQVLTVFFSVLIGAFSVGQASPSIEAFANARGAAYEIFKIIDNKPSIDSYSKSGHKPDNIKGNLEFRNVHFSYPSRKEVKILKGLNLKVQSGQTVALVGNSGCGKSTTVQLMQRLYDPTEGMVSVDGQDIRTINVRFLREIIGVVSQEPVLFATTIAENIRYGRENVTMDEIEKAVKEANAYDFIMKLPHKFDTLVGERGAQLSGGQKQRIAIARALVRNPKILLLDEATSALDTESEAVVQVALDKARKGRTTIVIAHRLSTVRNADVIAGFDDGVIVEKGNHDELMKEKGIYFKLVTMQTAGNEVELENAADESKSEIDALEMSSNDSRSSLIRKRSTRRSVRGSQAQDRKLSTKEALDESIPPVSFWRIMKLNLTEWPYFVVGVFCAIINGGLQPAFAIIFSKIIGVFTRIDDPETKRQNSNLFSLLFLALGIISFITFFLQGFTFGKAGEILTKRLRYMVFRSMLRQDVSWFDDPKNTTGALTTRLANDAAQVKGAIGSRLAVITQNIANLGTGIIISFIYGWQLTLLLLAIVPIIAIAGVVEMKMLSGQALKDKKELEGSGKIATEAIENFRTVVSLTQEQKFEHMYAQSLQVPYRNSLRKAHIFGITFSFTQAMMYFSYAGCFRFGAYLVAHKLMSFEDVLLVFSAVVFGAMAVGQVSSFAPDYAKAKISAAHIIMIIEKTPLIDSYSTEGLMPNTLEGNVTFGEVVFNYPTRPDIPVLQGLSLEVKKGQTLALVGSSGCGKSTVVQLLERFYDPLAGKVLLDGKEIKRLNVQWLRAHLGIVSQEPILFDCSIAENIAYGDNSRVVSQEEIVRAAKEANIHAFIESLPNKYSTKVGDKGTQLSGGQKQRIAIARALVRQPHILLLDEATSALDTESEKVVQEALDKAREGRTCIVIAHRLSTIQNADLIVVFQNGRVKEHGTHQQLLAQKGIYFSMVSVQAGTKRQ

[2] = biological target: T1, ATP-dependent translocase ABCB1; test: Inhibition of ABCB1 in human SW620/AD300 cells assessed as potentiation of colchicine-induced cytotoxicity by measuring fold reduction in colchicine IC50 at 2 uM preincubated for 4 hrs followed by […] measured after 72 hrs by MTT assay
[3] = biological target: T1, ATP-dependent translocase ABCB1; test: Inhibition of ABCB1 (unknown origin) expressed in HEK293T cells assessed as potentiation of paclitaxel-induced cytotoxicity by measuring fold reduction in paclitaxel IC50 at 2 uM preincubated for 4 hrs followed by paclitaxel addition measured after 72 hrs by MTT assay
[4] = biological target: T1, ATP-dependent translocase ABCB1; test: Inhibition of ABCB1 (unknown origin) expressed in HEK293T cells assessed as potentiation of colchicine-induced cytotoxicity by measuring fold reduction in colchicine IC50 at 2 uM preincubated for 4 hrs followed by […] measured after 72 hrs by MTT assay
[5] = biological target: T1, ATP-dependent translocase ABCB1; test: Inhibition of ABCB1 in human SW620/AD300 cells assessed as potentiation of paclitaxel-induced cytotoxicity by measuring fold reduction in paclitaxel IC50 at 2 uM preincubated for 4 hrs followed by paclitaxel addition measured after 72 hrs by MTT assay relative to verapamil
[6] = biological target: T1, ATP-dependent translocase ABCB1; test: Inhibition of ABCB1 in human SW620/AD300 cells assessed as potentiation of colchicine-induced cytotoxicity by measuring fold reduction in colchicine IC50 at 2 uM preincubated for 4 hrs followed by […] measured after 72 hrs by MTT assay relative to verapamil
[7] = biological target: T1, ATP-dependent translocase ABCB1; test: Binding affinity at ABCB1 in human SW620/AD300 cells assessed as thermal stabilization at 2 uM preincubated for 4 hrs followed by incubation 40 to 61 degC for 3 mins by CETSA; settings: 0.05 h
[8] = biological target: T1, ATP-dependent translocase ABCB1; test: Inhibition of ABCB1 in human SW620/AD300 cells assessed as increase in Rh123 accumulation at 2 uM preincubated or 4 hrs followed by Rh123 addition measured after 30 mins by flow cytometry; settings: 0.5 h
[9] = biological target: T1, ATP-dependent translocase ABCB1; test: Inhibition of ABCB1 in human SW620/AD300 cells assessed as reduction in Rh123 efflux at 2 uM treated followed by Rh123 addition in Rh123 free medium for 30 to 120 mins by flow cytometry
[10] = biological target: T1, ATP-dependent translocase ABCB1; test: Inhibition of ABCB1 in human SW620/AD300 cells assessed as reduction in paclitaxel efflux at 2 uM treated followed by 2 hrs of paclitaxel treatment in paclitaxel free medium for 30 mins by flow cytometry

| Structure (SMILES) | fold change (FC) [1] | other results |
| --- | --- | --- |
| C#CCSc1nc(Nc2ccccc2Cl)c(C#N)c(-c2ccccc2)n1 | 1.32 | – |
| C#CCSc1nc(Nc2ccc(OC)cc2)c(C#N)c(-c2ccccc2)n1 | 1.92 | – |
| COc1ccc(Nc2nc(SCc3cn(Cc4ccccc4Cl)nn3)nc(-c3ccccc3)c2C#N)cc1 | 6.7 | – |
| C#CCSc1nc(Nc2cccc(C(F)(F)F)c2)c(C#N)c(-c2ccccc2)n1 | 1.2 | – |
| N#Cc1c(Nc2cccc(C(F)(F)F)c2)nc(SCc2cn(Cc3ccccc3Cl)nn2)nc1-c1ccccc1 | 5.84 | – |
| N#Cc1c(Nc2ccccc2Cl)nc(SCc2cn(Cc3ccccc3Cl)nn2)nc1-c1ccccc1 | 24.06 | – |
| C#CCSc1nc(Nc2ccc(Cl)cc2)c(C#N)c(-c2ccccc2)n1 | 1.64 | – |
| N#Cc1c(Nc2ccc(Cl)cc2)nc(SCc2cn(Cc3ccccc3Cl)nn2)nc1-c1ccccc1 | 2.02 | – |
| C#CCSc1nc(Nc2cccc(Cl)c2)c(C#N)c(-c2ccccc2)n1 | 1.36 | – |
| N#Cc1c(Nc2cccc(Cl)c2)nc(SCc2cn(Cc3ccccc3Cl)nn2)nc1-c1ccccc1 | 21.52 | – |
| COc1ccccc1Nc1nc(SCc2cn(Cc3ccccc3Cl)nn2)nc(-c2ccccc2)c1C#N | 2.29 | – |
| Cc1cccc(Nc2nc(SCc3cn(Cc4ccccc4Cl)nn3)nc(-c3ccccc3)c2C#N)c1 | 8.7 | – |
| N#Cc1c(Nc2cccc([N+](=O)[O-])c2)nc(SCc2cn(Cc3ccccc3Cl)nn2)nc1-c1ccccc1 | 5.68 | – |
| N#Cc1c(Nc2ccccc2F)nc(SCc2cn(Cc3ccccc3Cl)nn2)nc1-c1ccccc1 | 8.7 | – |
| N#Cc1c(Nc2ccc(F)cc2)nc(SCc2cn(Cc3ccccc3Cl)nn2)nc1-c1ccccc1 | 1.01 | – |
| Cc1ccccc1Nc1nc(SCc2cn(Cc3ccccc3Cl)nn2)nc(-c2ccccc2)c1C#N | 5.6 | – |

| Structure (SMILES) | fold change (FC) [1] | other results |
| --- | --- | --- |
| N#Cc1c(Nc2ccccc2)nc(SCc2cn(Cc3ccccc3Cl)nn2)nc1-c1ccccc1 | 7.86 | – |
| Cc1ccccc1Nc1nc(SCc2cn(Cc3ccc(Cl)cc3)nn2)nc(-c2ccccc2)c1C#N | 136.33 | fold change (FC) [2]: 5.04; fold change (FC) [3]: 4.53; fold change (FC) [4]: 31.31; fold change (FC) [5]: 7; fold change (FC) [6]: 2; Activity [7]: Active; inhibition (INH) [8]: Active; inhibition (INH) [9]: Active; inhibition (INH) [10]: Active |
| Cc1ccc(Cn2cc(CSc3nc(Nc4ccccc4C)c(C#N)c(-c4ccccc4)n3)nn2)cc1 | 4.44 | – |
| Cc1ccc(Nc2nc(SCc3cn(Cc4ccc(Cl)cc4)nn3)nc(-c3ccccc3)c2C#N)cc1 | 8.7 | – |
| Cc1ccc(Nc2nc(SCc3cn(Cc4ccc(F)cc4)nn3)nc(-c3ccccc3)c2C#N)cc1 | 1.03 | – |
| N#Cc1c(Nc2ccccc2F)nc(SCc2cn(Cc3ccc(Cl)cc3)nn2)nc1-c1ccccc1 | 1.35 | – |
| Cc1ccc(Cn2cc(CSc3nc(Nc4ccccc4F)c(C#N)c(-c4ccccc4)n3)nn2)cc1 | 1 | – |
| Cc1ccc(Cn2cc(CSc3nc(Nc4ccc(C)cc4)c(C#N)c(-c4ccccc4)n3)nn2)cc1 | 4.35 | – |
| Cc1ccc(Cn2cc(CSc3nc(Nc4ccccc4Cl)c(C#N)c(-c4ccccc4)n3)nn2)cc1 | 1.09 | – |
| Cc1ccc(Nc2nc(SCc3cn(Cc4ccccc4Cl)nn3)nc(-c3ccccc3)c2C#N)cc1 | 3.58 | – |
| Cc1ccc(Nc2nc(SCc3cn(Cc4ccccc4Cl)nn3)nc(-c3ccc(C(C)C)cc3)c2C#N)cc1 | 51.12 | – |
| Cc1ccc(Nc2nc(SCc3cn(Cc4ccccc4Cl)nn3)nc(-c3ccc(C)cc3)c2C#N)cc1 | 17.04 | – |
| COc1cc(-c2nc(SCc3cn(Cc4ccccc4Cl)nn3)nc(Nc3ccc(C)cc3)c2C#N)cc(OC)c1OC | 34.08 | – |
| Cc1ccc(Nc2nc(SCc3cn(Cc4ccccc4Cl)nn3)nc(-c3ccc(Cl)cc3)c2C#N)cc1 | 5.31 | – |
| Cc1ccc(Nc2nc(SCc3cn(Cc4ccccc4Cl)nn3)nc(-c3ccc(Br)cc3)c2C#N)cc1 | 3.61 | – |
